Earlier results on one compound are cited in patent US20260345571A1, “DELAMANID-CONTAINING SOLID DISPERSION” (priority 2022, published 2026).

Series [1] concerns Mycobacterium tuberculosis. Particulars: PTL 1.
For series [2] the following is noted: melting point about 195 °C (decomposition).
A further series has as its system atypical mycobacteria. Particulars: PTL 1.

Consider `C[C@]1(COc2ccc(N3CCC(Oc4ccc(OC(F)(F)F)cc4)CC3)cc2)Cn2cc([N+](=O)[O-])nc2O1` [Delamanid, (2R)-2-methyl-6-nitro-2-[(4-{4-[4-(trifluoromethoxy)phenoxy]piperidin-1-yl}phenoxy)methyl]-2,3-dihydroimidazo[2,1-b]oxazole], for which, in series [1], the “Bactericidal action against Mycobacterium tuberculosis” value was “excellent bactericidal action”. Further, the Thermal stability result in series [2] is “poor thermal stability”. Besides, the “Bactericidal action against atypical mycobacteria” value with atypical mycobacteria is recorded as “excellent bactericidal action”.
